Data on 2 compounds can be found in US20180042983A1, “THERAPEUTIC COMPOSITIONS INCLUDING MITOCHONDRIAL FISSION INHIBITOR PEPTIDES, VARIANTS THEREOF, AND METHODS OF USING THE SAME” (STEALTH PEPTIDES INTERNATIONAL, INC., priority 2015, published 2018).

Series [1] concerns several mammalian cell types. To be noted: cited from earlier work.
The subject of series [2] is neonatal cardiomyocytes. In words: Ang II-induced mitochondrial ROS in neonatal cardiomyocytes (Mitosox flow cytometry). The following applies: after Ang II (1 μM, 3 hours). In kind it is cell-based, mouse. As for the experimental part: Ventricles from mouse neonates younger than 72 hours will be dissected, minced, and enzymatically digested with Blendzyme 4 (45 mg/mL, Roche). After enzymatic digestion, cardiomyocytes will be enriched using differential pre-plating for 2 hours, and seeded on fibronectin-coated culture dishes for 24 hours in DMEM (Gibco) with 20% Fetal Bovine Serum (Sigma) and 25 μM Arabinosylcytosine (Sigma). Cardiomyocytes will be stimulated with Angiotensin II (1 μM) for 3 hours in serum-free DMEM containing 0.5% insulin transferrin-selenium (Sigma), 2 mM glutamine, and 1 mg/mL BSA. […] To measure mitochondrial superoxide concentration, Mitosox ([…]) will be incubated for 30 minutes at 37° C. to load cardiomyocytes, followed by 2 washes with Hanks Balanced Salt Solution. Samples will be analyzed using excitation/emission of 488/625 nm by flow cytometry. Flow data will be analyzed using FCS Express (De Novo Software, Los Angeles, Calif., U.S.A.), and presented as histogram distributions of Mitosox fluorescence intensity.

In the case of 2′,6′-Dmt-D-Arg-Phe-Lys-NH2, the “penetration of the plasma membrane” value in series [1] is given as “readily penetrates the plasma membrane of several mammalian cell types in an energy-independent manner”. In the case of `CC(=O)N[C@@H](CS)C(=O)O` [N-acetyl cysteine], the “mitochondrial ROS (Mitosox fluorescence)” value in series [2] is on record as “not show any effect”.
